Test results: patent US10342799B2, “Compositions and methods for prophylaxis and therapy for Meniere's disease” (priority 2013, dated 2019)

System: patients diagnosed with active definite MD (Ménière's vertigo attacks)
Assay: Retrospective and prospective review of active definite Meniere's disease patients treated with lamotrigine (vertigo attacks, DHI, side effects)
Format: in vivo, human patients
Experimental: Population. A retrospective and prospective review was performed on patients who were older than 18 years old, diagnosed with active definite MD at the Dent Dizziness, Balance and Tinnitus Center and treated with lamotrigine. Definite MD is defined as two or more episodes of vertigo that last for ≥20 minutes with documented hearing loss on at least one occasion, tinnitus and/or aural fullness, and other causes excluded. Active MD status requires patients to experience at least three vertigo attacks during the three months prior to treatment.
Clinical data. Data collected included demographic information, history of MD, prior medical treatment, clinical diagnosis, clinical presentation, stage of the disease, and frequency of Ménière's vertigo attacks prior to and after treatment. The staging of MD was based on the four-tone average of the pure-tone thresholds at 0.5, 1, 2 and 3 kHz of the worst audiogram during the six months before treatment. The questionnaires used were the Dizziness Handicap Inventory (DHI) and the Center's Dizziness Questionnaire. Current or past history of anxiety/depression, migraine problems, and use of anti-anxiety medication were also analyzed.
Outcome variable. The primary outcome measure was the reduction of Ménière's vertigo attacks at both three months after lamotrigine initiation (primarily the titration period) and three months after treatment at maintenance dosage. Secondary outcome measures included DHI scores and patient reports of clinical improvement. Data were confirmed by review of physicians' notes, vestibular and audiogram testing results, and supporting data. Means and standard deviations (SDs) were calculated for all continuous variables and proportions for all categorical variables. The primary research questions were whether or not lamotrigine led to a reduction of Ménière's vertigo attacks and whether or not lamotrigine led to improvement in quality of life for MD patients.
Statistical analysis. The overall difference in Meniere's vertigo attacks among 3 months pre-treatment, 3 months of titration, and 3 months of maintenance treatment was evaluated by Friedman's test, which is a nonparametric test for treatment differences in a randomized complete block design. The Wilcoxon signed rank sum test, which is the nonparametric version of a paired sample t-test, was used for the pairwise comparisons of Meniere's vertigo attacks from the three different time periods as well as DHI before and after treatment. Fisher's exact test was used to evaluate whether treatment effectiveness was affected by migraine or anxiety comorbidities. For all of these statistical tests, the tests were two-sided, and the level of significance was set to 0.05. Differences were considered significant if the p-value was less than 0.05.
Lamotrigine titration. All 45 patients began a titration of lamotrigine of 25 mg BID for two weeks to 50 mg BID for two weeks. Final maintenance dosages varied between 25 mg BID and 200 mg BID due to individual patient tolerance and response; 29 patients were on either 100 mg BID or 150 mg BID maintenance dosages (64%). There was one patient who was lost to follow-up. There were four patients who discontinued lamotrigine due to side effects: one experienced stomachaches and diarrhea, one complained of hallucinations, and two developed rashes.

[1] = mean (SD), three months prior to treatment: 12.7 (SD 11.6)
[2] = number of patients, value in brackets

SMILES: Nc1nnc(-c2cccc(Cl)c2Cl)c(N)n1 [Lamotrigine, 6-(2,3-Dichlorophenyl)-1,2,4-triazine-3,5-diamine]
- vertigo attack reduction and remission: influence of migraine comorbidity (Fisher's exact test, p=0.414): not affected
- vertigo attack reduction and remission: influence of anxiety/depression comorbidity (Fisher's exact test, p=1.000): not affected
- patients who reported improvement and had anxiety/depression disorder (among the 38 improved patients): 28 patients
- patients who reported improvement and had migraine (among the 38 improved patients): 20 patients
- mean post-treatment DHI score (mean (SD), prior treatment DHI 47.6 (SD 19.6)): 28.6 (SD 20.9)
- mean number of vertigo attacks after three months of maintenance dosage [1]: 1.9 (SD 4.6)
- mean number of vertigo attacks three months after initiation (primarily the titration period) [1]: 4.5 (SD 6.2)
- Side effect, MD with migraine (number of patients): 1
- Side effect, MD without migraine (number of patients): 3
- Side effect, Total (number of patients): 4
- Vertigo attack free, MD with migraine (number of patients): 11
- Vertigo attack free, MD without migraine (number of patients): 10
- Vertigo attack free, Total (number of patients): 21
- Vertigo reduced, MD with migraine (number of patients): 9
- Vertigo reduced, MD without migraine (number of patients): 8
- Vertigo reduced, Total (number of patients): 17
- Vertigo unchanged, MD with migraine (number of patients): 1 (1)
- Vertigo unchanged, MD without migraine (number of patients): 1 (1)
- Vertigo unchanged, Total (number of patients): 2
- Side effect, MD with anxiety [2]: 3
- Side effect, MD without anxiety [2]: 1
- Vertigo attack free, MD with anxiety [2]: 15
- Vertigo attack free, MD without anxiety [2]: 6
- Vertigo reduced, MD with anxiety [2]: 13
- Vertigo reduced, MD without anxiety [2]: 4
- Vertigo unchanged, MD with anxiety [2]: 1 (1)
- Vertigo unchanged, MD without anxiety [2]: 1 (1)
- patients with complete resolution of Ménière's vertigo attacks during the three month maintenance period (of 38 improved patients): 21 patients
- patients who discontinued lamotrigine due to side effects (of 45 patients): four
- patients who discontinued with hallucinations (of 45 patients): one
- patients who discontinued with rashes (of 45 patients): two
- patients who discontinued with stomachaches and diarrhea (of 45 patients): one
- proportion of patients who reported an improvement in Ménière's vertigo attacks (out of all 45 study patients): 84%
- patients who reported an improvement in Ménière's vertigo attacks with lamotrigine treatment (out of all 45 study patients, maintenance 25-200 mg BID): 38 patients
- post-DHI score less than pre-DHI score, on average (p=0.001): 19 points
- vertigo attacks during 3 months of maintenance relative to 3 months of titration (p=0.04): significantly fewer
- vertigo attacks during the two treatment periods compared to the 3 months prior to treatment (titration and maintenance periods, p<0.001, p<0.001, Wilcoxon signed rank): significantly fewer
